From patent US7989438B2, “Therapeutic compounds” (Istituto di Ricerche di Biologia Molecolare P. Angeletti SpA, priority 2007, dated 2011) come the findings set out here.

This assay relates to HCV subgenomic replication. The assay is described as follows: Cell based HCV replication assay (subgenomic replicon in Huh-7 cells, NS3 Cell-ELISA). Particulars: activity ranges. The text has this: Cell clones that stably maintain subgenomic HCV replicon were obtained by transfecting Huh-7 cells with an RNA replicon identical to I377neo/NS3-3′/wt described by Lohmann et al. (1999) (EMBL-genbank No. AJ242652), followed by selection with neomycin sulfate (G418). Viral replication was monitored by measuring the expression of the NS3 protein by an ELISA assay performed directly on cells grown in 96 wells microtiter plates (Cell-ELISA) using the anti-NS3 monoclonal antibody 10E5/24 (as described in published International application WO 02/59321). Cells were seeded into 96 well plates at a density of 10^4 cells per well in a final volume of 0.1 ml of DMEM/10% FCS. Two hours after plating, 50 μl of DMEM/10% FCS containing a 3× concentration of inhibitor were added, cells were incubated for 96 hours and then fixed for 10 minutes with ice-cold isopropanol. Each condition was tested in duplicate and average absorbance values were used for calculations. The cells were washed twice with PBS, blocked with 5% non-fat dry milk in PBS+0.1% Triton X100+0.02% SDS (PBSTS) and then incubated o/n at 4° C. with the 10E5/24 mab diluted in Milk/PBSTS. After washing 5 times with PBSTS, the cells were incubated for 3 hours at room temperature with Fc specific anti-mouse IgG conjugated to alkaline phosphatase (Sigma), diluted in Milk/PBSTS. After washing again as above, the reaction was developed with p-Nitrophenyl phosphate disodium substrate (Sigma) and the absorbance at 405/620 nm read at intervals. For calculations, we used data sets where samples incubated without inhibitors had absorbance values comprised between 1 and 1.5. The inhibitor concentration that reduced by 50% the expression of NS3 (IC50) was calculated by fitting the data to the Hill equation, Fraction inhibition=1−(Ai−b)/(A0−b)=[I]^n/([I]^n+[…]) where: • Ai=absorbance value of HBI10 cells supplemented with the indicated inhibitor concentration. • A0=absorbance value of HBI10 cells incubated without inhibitor. • b=absorbance value of Huh-7 cells plated at the same density in the same microtiter plates and incubated without inhibitor. • n=Hill coefficient.

Setting [1] is: Table A, Huh-7 replicon cells, 96 hours, read-out: IC50 (nM), Inhibition of HCV subgenomic replication.
[2] abbreviates: Table 5, various macrocycles, read-out: IC50* (nM), Inhibition of HCV subgenomic replication.
[3] abbreviates: Hepatitis C virus, Huh-7, Table 5, various macrocycles, read-out: IC50* (nM), Inhibition of HCV subgenomic replication.

Read-outs that look alike come from different tables or passages of the source. Bounds are passed on as bounds.

The term IC50 denotes the point on the concentration scale where inhibition reaches its midpoint. On to `CN1CCCCN(C)S(=O)(=O)NC(=O)c2ccc3c(C4CCCCC4F)c4n(c3c2)CC(COc2ccccc2-4)C1` (single isomer, unassigned) [Compound A16, (7R,S)-14-[(1R,2S) or (1S,2R)-2-fluorocyclohexyl]-18,23-dimethyl-7,8-dihydro-6H-11,7-(methanoiminothioiminobutanoiminomethano)indolo[1,2-e][1,5]benzoxazocin-15-one 17,17-dioxide], for which the IC50 under setting [1] is 25 to 150 nM.

For `COc1ccc2c(c1)OCC1CCN(C)CCCN(C)S(=O)(=O)NC(=O)c3ccc4c(C5CCCCC5F)c-2n(c4c3)C1` (single isomer, unassigned) [Compound A38, 14-[(1R,2S) or (1S,2R)-2-fluorocyclohexyl]-3-methoxy-18,22-dimethyl-7,8-dihydro-6H-7,11-(ethanoiminopropanoiminothioiminomethano)indolo[1,2-e][1,5]benzoxazocin-15-one 17,17-dioxide], under setting [1], the IC50 was less than 25 nM.

As for `CN1CCOCC2COc3ccccc3-c3c(C4CCCCC4)c4ccc(cc4n3C2)C(=O)NS(=O)(=O)N(C)CC1` (single isomer, unassigned) [Compound A39, (7R or 7S)-14-cyclohexyl-18,21-dimethyl-7,8-dihydro-6H-7,11-(methanooxyethanoiminoethanoiminothioiminomethano)indolo[1,2-e][1,5]benzoxazocin-15-one 17,17-dioxide], under setting [1], the IC50 is less than 25 nM.

On to `CN1CCCC2COc3ccccc3-c3c(C4CCCCC4F)c4ccc(cc4n3C2)C(=O)NS(=O)(=O)N(C)CC1` (single isomer, unassigned) [Compound A40, (7R)-14-[(1R,2S) or (1S,2R)-2-fluorocyclohexyl]-18,21-dimethyl-7,8-dihydro-6H-7,11-(propanoiminoethanoiminothioiminomethano)indolo[1,2-e][1,5]benzoxazocin-15-one 17,17-dioxide], for which, under setting [1], the IC50 is less than 25 nM.

As for `CN1CCN(C)C2COc3ccccc3-c3c(C4CCCCC4F)c4ccc(cc4n3C2)C(=O)NS(=O)(=O)N(C)CC1` (single isomer, unassigned) [Example 413, (7R)-14-[(1R,2S) or (1S,2R)-2-fluorocyclohexyl]-18,21,24-trimethyl-7,8-dihydro-6H-7,11-(epiminoethanoiminoethanoiminothioiminomethano)-indolo[1,2-e][1,5]benzoxazocin-15-one 17,17-dioxide], the IC50 (Table 4, various macrocycles, read-out: IC50* (nM), Inhibition of HCV subgenomic replication) was less than 25 nM.

Consider `CN1CCCN(C)S(=O)(=O)NC(=O)c2ccc3c(C4CCCCC4F)c4n(c3c2)CC(CC1)COc1ccccc1-4` (single isomer, unassigned) [Example 501, 14-[(1R,2S) or (1S,2R)-2-fluorocyclohexyl]-18,22-dimethyl-7,8-dihydro-6H-7,11-(ethanoiminopropanoiminothioiminomethano)indolo[1,2-e][1,5]benzoxazocin-15-one 17,17-dioxide], for which the IC50 under setting [2] fell in the range of 25 to 150 nM.

As for `CN1CCC2COc3ccccc3-c3c([C@H]4CCCC[C@@H]4F)c4ccc(cc4n3C2)C(=O)NS(=O)(=O)N2CCC1CC2` (single isomer, unassigned) [Example 502, 30-[(1R,2S) or (1S,2R)-2-fluorocyclohexyl]-23-methyl-18-oxa-2-thia-1,3,10,23-tetraazahexacyclo[22.2.2.1^5,9.1^8,11.1^10,20.0^12,17]hentriaconta-5(31),6,8,11(30),12,14,16-heptaen-4-one 2,2-dioxide], the IC50 under setting [3] lay within 25 to 150 nM.

Turning to `CN1CC2CCN(CC2)S(=O)(=O)NC(=O)c2ccc3c([C@H]4CCCC[C@@H]4F)c4n(c3c2)CC(COc2ccccc2-4)C1` (single isomer, unassigned) [Example 503, 30-[(1R,2S) or (1S,2R)-2-fluorocyclohexyl]-22-methyl-18-oxa-2-thia-1,3,10,22-tetraazahexacyclo[22.2.2.1^5,9.1^8,11.1^10,20.0^12,17]hentriaconta-5(31),6,8,11(30),12,14,16-heptaen-4-one 2,2-dioxide], the IC50 under setting [3] lay in the range of 25 to 150 nM.

Consider `CN1CCCN(CCN2CCCC2)S(=O)(=O)NC(=O)c2ccc3c(C4CCCCC4)c4n(c3c2)CC(CC1)COc1ccccc1-4` (single isomer, unassigned) [Example 505, (7R) or (7S)-14-cyclohexyl-22-methyl-18-(2-pyrrolidin-1-ylethyl)-7,8-dihydro-6H-7,11-(ethanoiminopropanoiminothioiminomethano)indolo[1,2-e][1,5]benzoxazocin-15-one 17,17-dioxide], for which the IC50 under setting [2] lay within 25 to 150 nM.

In the case of `CC(C)N1CCCN(C)S(=O)(=O)NC(=O)c2ccc3c(C4CCCCC4)c4n(c3c2)CC(CC1)COc1ccccc1-4` (single isomer, unassigned) [Example 506, (7R) or (7S)-14-cyclohexyl-22-isopropyl-18-methyl-7,8-dihydro-6H-7,11-(ethanoiminopropanoiminothioiminomethano)indolo[1,2-e][1,5]benzoxazocin-15-one 17,17-dioxide], the concentration for half-maximal inhibition (IC50) under setting [2] is less than 25 nM.

For `CN1CCCN(CCO)CCC2COc3ccccc3-c3c(C4CCCCC4)c4ccc(cc4n3C2)C(=O)NS1(=O)=O` (single isomer, unassigned) [Example 507, (7R) or (7S)-14-cyclohexyl-22-(2-hydroxyethyl)-18-methyl-7,8-dihydro-6H-7,11-(ethanoiminopropanoiminothioiminomethano)indolo[1,2-e][1,5]benzoxazocin-15-one 17,17-dioxide], the concentration for half-maximal inhibition (IC50) under setting [2] was less than 25 nM.

With `CN1CCCN(C)S(=O)(=O)NC(=O)c2ccc3c(C4CCCCC4)c4n(c3c2)CC(CC1)COc1ccccc1-4` (single isomer, unassigned; (+)) [Compound A13, (+)-14-cyclohexyl-18,22-dimethyl-7,8-dihydro-6H-7,11-(ethanoiminopropanoiminothioiminomethano)indolo[1,2-e][1,5]benzoxazocin-15-one 17,17-dioxide], under setting [1], the half-inhibitory concentration (IC50) is 25 to 150 nM.

In the case of `COc1ccc2c(c1)OCC1CCCN(C)CCN(C)S(=O)(=O)NC(=O)c3ccc4c(C5CCCCC5)c-2n(c4c3)C1` (single isomer, unassigned; (+)) [Compound A36, (+)-14-cyclohexyl-3-methoxy-18,21-dimethyl-7,8-dihydro-6H-7,11-(propanoiminoethanoiminothioiminomethano)indolo[1,2-e][1,5]benzoxazocin-15-one 17,17-dioxide], the IC50 under setting [1] was 25 to 150 nM.

Consider `CN1CCCN(C)S(=O)(=O)NC(=O)c2ccc3c(C4CCCCC4)c4n(c3c2)CC(CC1)COc1ccccc1-4` (single isomer, unassigned; (-)) [Compound A14, (−)-14-cyclohexyl-18,22-dimethyl-7,8-dihydro-6H-7,11-(ethanoiminopropanoiminothioiminomethano)indolo[1,2-e][1,5]benzoxazocin-15-one 17,17-dioxide], for which the half-maximal inhibitory concentration (IC50) under setting [1] is less than 25 nM.

For `COc1ccc2c(c1)OCC1CCN(C)CCCN(C)S(=O)(=O)NC(=O)c3ccc4c(C5CCCCC5)c-2n(c4c3)C1` (single isomer, unassigned; (-)) [Compound A35, (−)-14-cyclohexyl-3-methoxy-18,22-dimethyl-7,8-dihydro-6H-7,11-(ethanoiminopropanoiminothioiminomethano)indolo[1,2-e][1,5]benzoxazocin-15-one 17,17-dioxide], the IC50 under setting [1] is less than 25 nM.

Take `COc1ccc2c(c1)OCC1CCCN(C)CCN(C)S(=O)(=O)NC(=O)c3ccc4c(C5CCCCC5)c-2n(c4c3)C1` (single isomer, unassigned; (-)) [Compound A37, (−)-14-cyclohexyl-3-methoxy-18,21-dimethyl-7,8-dihydro-6H-7,11-(propanoiminoethanoiminothioiminomethano)indolo[1,2-e][1,5]benzoxazocin-15-one 17,17-dioxide]: under setting [1], the IC50 was less than 25 nM.

As to `CN1CCNCCN(C)S(=O)(=O)NC(=O)c2ccc3c(C4CCCCC4)c4n(c3c2)CC1COc1ccccc1-4` [Compound A1, (7R)-14-cyclohexyl-18,24-dimethyl-7,8-dihydro-6H-7,11-(epiminoethanoiminoethanoiminothioiminomethano)indolo[1,2-e][1,5]benzoxazocin-15-one 17,17-dioxide], the IC50 under setting [1] is less than 25 nM.

Regarding `CN1CCN(C)C2COc3ccccc3-c3c(C4CCCCC4)c4ccc(cc4n3C2)C(=O)NS(=O)(=O)N(C)CC1` [Compound A2, (7R)-14-cyclohexyl-18,21,24-trimethyl-7,8-dihydro-6H-7,11-(epiminoethanoiminoethanoiminothioiminomethano)indolo[1,2-e][1,5]benzoxazocin-15-one 17,17-dioxide], under setting [1], the half-inhibitory concentration (IC50) was less than 25 nM.
